“Also recorded” adds a separate entry of the source.
Columns and labels:
[1] = system: Mobilized peripheral blood CD34(+) cells; test: Growth factor (Flt3, SCF, TPO) requirement / mitogen test (FIG. 3); assay type: cell-based, human
Description: FIG. 3: Flt3, SCF, and TPO are required for compound 1 mediated stem cell expansion. Mobilized peripheral blood CD34(+) cells were cultured for 7 days in the presence or absence of the growth factors (Flt3+SCF+TPO).
This indicate that akin to SR1, Compound 1's effect on maintenance of primitive HSC phenotype ex vivo is not due to a mitogenic effect on this population but rather on the prevention of cell differentiation.

[2] = system: CD34+ mobilized peripheral blood (mPB) cells; test: Ex vivo expansion of mobilized peripheral blood-derived CD34+ and CD34+CD45RA− cells (FIG. 5A); assay type: cell-based, human
Source text: FIG. 5: A) Compound 1 expands mobilized peripheral blood-derived CD34+ and CD34+CD45RA− cell populations ex vivo. […] This observation was enhanced with the co-treatment with SR1.
[…]. The level of expansion is the same whether cultures are initiated with Compound 1, SR1, Compound 1+SR1, or control DMSO. […] […].

[3] = system: AhR-responsive genes (CYP1B1 and AhRR); test: Real-time quantitative RT-PCR for AhR-responsive genes (FIG. 1); assay type: cell-based, human; conditions: mPB CD34(+) cells, 12 hours, Compound 1 500 nM
Description: Mobilized peripheral blood CD34(+) cells were cultured for 12 hours with DMSO, SR1 [AhR antagonist 1000 nM], and Compound 1 [500 nM], cells were harvested and real-time quantitative RT-PCR for AhR-responsive genes (CYP1B1 and AhRR) was performed.

[4] = system: primary human mobilized CD34+ cells; test: High throughput screening assay on primary human mobilized CD34+ cells, with secondary screen; assay type: cell-based
Source text: To identify novel putative agonists of HSC self-renewal, we have adapted a high throughput based-screening assay to test a library of small molecule compounds (5,280 low molecular weight compounds) on primary human mobilized CD34+ cells. It is to be understood that the same approach applies to CD34+ cells from the various sources known by a person skilled in the art to isolate CD34+ cells. Mononuclear cells were stained with Mouse antihuman CD34+APC (from BD Pharmingen) and subsequently magnetically labeled with Anti-APC magnetic MicroBeads (from MACS, Miltenyi Biotec). The magnetically labeled cells were retained using AutoMACS column. […]
In a 384-well plate, 2000 CD34^+ cells/well were cultured in 50 μl medium containing 1 μM of test compounds or 0.1% DMSO (vehicle). The proportion of CD34^+CD45RA^− cells was determined at the start of the experiment and after a 7-day incubation. Six out of the 5,280 compounds of different chemical backgrounds initially tested promoted CD34+CD45RA− cell expansion, and seventeen (17) enhanced differentiation as determined by the increase in proportions of CD34−CD45RA+ cells compared to control (DMSO). The six compounds promoting expansion of the CD34+CD45RA− cell population were re-analyzed in a secondary screen. […]

[5] = system: CD34+CD45RA− cord blood cells; test: Ex vivo expansion of cord blood-derived CD34+ and CD34+CD45RA− cells (FIG. 5B, 5C); assay type: cell-based, human
[6] = system: CD34+ mobilized peripheral blood cells; test: FACS analysis of differentiation of CD34+ mobilized peripheral blood cells (FIG. 4A); assay type: cell-based, human
Source text: FIG. 4A illustrates the impact of Compound 1 on mobilized peripheral blood cell differentiation. Following a 7 day expansion, a relatively pure (>85% CD34^+) population of mobilized peripheral blood was exposed to control the (DMSO) or Compound 1 or SR1 or Compound 1+SR1.

[7] = system: Mobilized peripheral blood CD34(+) cells; test: Reversibility (wash-out) of compound effect on CD34+CD45RA− percentage (FIG. 2); assay type: cell-based, human; conditions: for reversibility of effect on CD34+CD45RA− percentage after wash-out: 7 days with compound, washed, 8 additional days
Description: FIG. 2: Effect of compound 1 is reversible. Mobilized peripheral blood CD34(+) cells cultured for 7 days with compound 1 (shown in green) or vehicle (DMSO, shown in blue) were washed and re-plated in fresh media with or without Compound addition (solid vs dashed line respectively). Cells were cultured for 8 additional days and the percentage of CD34+CD45RA− was monitored.
This effect is best shown in FIG. 2 where CD34+ mobilized peripheral blood cells are cultured in the presence of Compound 1 for up to 7 days, at which time the Compound 1 is removed by washing the cells.

CD34+ cord blood cells = test: FACS analysis of differentiation of CD34+ cord blood cells (FIG. 4B-4D); conditions: FACS / cytological analysis
[8] = system: CD34+ CB cells transplanted in NSG mice; test: Engraftment of cultured CD34+ cord blood cells in NSG mice (FIG. 7); conditions: outcome of 5,000 CD34+ CB cells, 7 days culture, 8-weeks post transplantation (FIG. 7A)
Source text: These experiments were done in short term cultures i.e. 7 days.

CD34+ mPB cells = test: Colony-forming units in culture (CFU-C) assay in methylcellulose; assay type: cell-based, human; conditions: 1000 CD34+ mPB cells treated for 10 days
Description: The ex vivo functionality of expanded cells was tested using the conventional colony-forming units in culture (CFU-C) assay. Untreated cells or cells incubated with DMSO, positive control or a compound of the invention were plated in methylcellulose medium in conventional conditions. As an example, Compound 1 (Table 1, Example 1) expands the number of multipotent hematopoietic progenitors.

[9] = system: CD34+ mPB cells transplanted in NSG mice; test: Engraftment of cultured CD34+ mPB cells in NSG mice
[10] = outcome of 2,000,000 and 500,000 cells cultured 10 days, 8 weeks post transplantation

## COC(=O)c1ccc2c(c1)[nH]c1ncnc(NCCCN3CCCCC3)c12 [Compound 1, Methyl 4-((3-(piperidin-1-yl)propyl)amino)-9H-pyrimido[4,5-b]indole-7-carboxylate]
[1]
  induction of cell proliferation in the absence of growth factors (Flt3, TPO, SCF): not able to induce cell proliferation
[1]; 7 days, with or without Flt3+SCF+TPO
  CD34+CD45RA− cell count in the absence of any of the growth factors: lower
[2]; 12-days culture
  expansion of CD34+CD45RA− cell subpopulation: about ten fold
  total cell count increase above the input: about 20 fold
[2]; FIG. 5A
  CD34+ population vs DMSO: more than twice
  CD34+CD45RA− population vs DMSO: more than three times
  total cell count vs DMSO: the same
[3]
  suppression of AhR-downstream target genes (CYP1B1 and AhRR): does not suppress AhR-downstream target genes
[4]
  aryl hydrocarbon receptor (AhR) antagonism: not being aryl hydrocarbon receptor (AhR) antagonists
[4]; 7-day incubation
  expansion of MNCs including CD34+ cells: promote the expansion of MNCs including CD34+ cells
[5]; 7-day incubation
  expansion of cord blood-derived CD34+ and CD34+CD45RA− cells: enhances expansion
[5]; 12-day incubation
  in vitro expansion of cord blood-derived CD34+ and CD34+CD45RA− cells: positive effect
[5]; seven day period, DMSO about fifteen fold
  expansion of CD34+CD45RA− cord blood cells: 30-40 fold
[6]; 7 day expansion, optimal levels, vs DMSO control
  loss of CD34 cell surface expression: partly abrogated
[6]; FACS / cytological analysis
  differentiation of CD34+ mobilized peripheral blood cells: prevent cell differentiation; also recorded: reduces differentiation
[6]; FACS analysis
  CD34+ cell population compared to DMSO treated control cells: able to expand CD34+ cell population
[6]; FIG. 4A, 4B bottom panels
  CD34+CD45RA− cells vs SR1 or control cultures: more numerous
[7]
  reversibility of effect on CD34+CD45RA− percentage after wash-out: rapidly reversible
[7]; listed as compound 1
  reversibility of effect on CD34+CD45RA− percentage after wash-out: reversible
[7]; after wash-out at day 7
  compound-free exposure until cells acquired differentiation markers as in control cultures: ≤ 2 days
CD34+ cord blood cells
  differentiation of CD34+ cord blood cells: reduces differentiation
[8]
  human CD45+ engraftment / reconstitution activity: clear effect on reconstitution activity
[8]; listed as compound 1
  human CD45+ engraftment / reconstitution activity: human CD45+ engraftment
CD34+ mPB cells
  increase in multilineage GEMM colonies compared to control cells: 10 fold
  increase in multilineage GEMM colonies over input cells: 5 fold
[9]; cells cultured ten days, outcome of 50,000 and 500,000 cells, 13 week post-transplantation
  human hematopoietic engraftment (human CD45+ cells in BM): superior to SR1; also recorded: engrafted better than that of DMSO
[9]; [10]
  engraftment of NSG mice (human CD45): able to engraft NSG mice
  reconstitution of human myeloid and lymphoid compartments in bone marrow: positive for human CD33+ and CD19+

Source: US9409906B2, “Pyrimido[4,5-B]indole derivatives and use thereof in the expansion of hematopoietic stem cells” (UNIVERSITÉ DE MONTRÉAL, priority 2012, dated 2016)
